Assay results as given in patent US20080153896A1, “Polymorphic Forms of an HMG-CoA Reductase Inhibitor and Uses Thereof” (priority 2006, published 2008).

Experiment: Stability (integrity) testing of amorphous and polymorphic form under storage conditions, RP-HPLC
Format: physicochemical
Design: key to Impurity RRT 0.738 / Impurity RRT 0.949 / Impurity RRT 1.050 / Impurity RRT 1.550 / Impurity RRT 0.136 / Impurity RRT 0.720 / Impurity RRT 0.706 / Impurity RRT 1.18 / Impurity RRT 1.826: % of total UV absorption (HPLC peak area)
Method in brief: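 Amorphous form and three batches of polymorphic Form I of the hemi calcium salt were stored under different atmospheric conditions. Purity measured by RP-HPLC on C18 with UV detection, drug as percent of total absorption; total impurity from summed impurity peak areas, impurities identified by relative retention time.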

[1] = 25° C./60% RH 3M, hemi calcium salt
[2] = 25° C./60% RH 9M, hemi calcium salt

In the case of `CC(C)c1c(C(=O)Nc2ccc(CO)cc2)c(-c2ccccc2)c(-c2ccc(F)cc2)n1CC[C@@H](O)C[C@@H](O)CC(=O)[O-].CC(C)c1c(C(=O)Nc2ccc(CO)cc2)c(-c2ccccc2)c(-c2ccc(F)cc2)n1CC[C@@H](O)C[C@@H](O)CC(=O)[O-].[Ca+2]` [PP00405, (3R, 5R)-7-[2-(4-fluorophenyl)-5-isopropyl-3-phenyl-4-[(4-hydroxymethylphenylamino)carbonyl]-pyrrol-1-yl]-3,5-dihydroxy-heptanoic acid, hemi calcium salt], the Description (5° C. 1M) is reported as “White”, the “Impurity RRT 1.094” value (5° C. 1M) is reported as 0.157 and the “Impurity RRT 1.437” value (5° C. 1M) is reported as 0.155. The “Impurity RRT 1.593” value (5° C. 1M) was 0.082, the “Impurity RRT 1.694” value (5° C. 1M) was 0.069 and the Assay (5° C. 1M, hemi calcium salt) was 98.31 % W/W. For the same compound, the “Highest Impurity” value (5° C. 1M, hemi calcium salt) was 0.360, the “Impurity RRT 0.935” value (5° C. 1M, hemi calcium salt) was 0.360 and the “Impurity RRT 1.045” value (5° C. 1M, hemi calcium salt) was 0.357. For the same compound, the “Impurity RRT 1.64” value (5° C. 1M, hemi calcium salt) was 0.057, the “Total Impurity” value (5° C. 1M, hemi calcium salt) was 1.237 and the Water (5° C. 1M, hemi calcium salt) was 4.81 % W/W. The Description (5° C. 2M) was “White”, the “Impurity RRT 1.094” value (5° C. 2M) was 0.161 and the “Impurity RRT 1.180” value (5° C. 2M) was 0.048. For the same compound, the “Impurity RRT 1.437” value (5° C. 2M) was 0.164, the “Impurity RRT 1.593” value (5° C. 2M) was 0.085 and the “Impurity RRT 1.694” value (5° C. 2M) was 0.067. For the same compound, the Assay (5° C. 2M, hemi calcium salt) was 98.25 % W/W, the “Highest Impurity” value (5° C. 2M, hemi calcium salt) was 0.380 and the “Impurity RRT 0.935” value (5° C. 2M, hemi calcium salt) was 0.380. The “Impurity RRT 1.045” value (5° C. 2M, hemi calcium salt) was 0.375, the “Impurity RRT 1.64” value (5° C. 2M, hemi calcium salt) was 0.051 and the “Total Impurity” value (5° C. 2M, hemi calcium salt) was 1.33. The Water (5° C. 2M, hemi calcium salt) was 4.61 % W/W, the Description (5° C. 3M) was “White” and the “Impurity RRT 1.094” value (5° C. 3M) was 0.149. The “Impurity RRT 1.437” value (5° C. 3M) was 0.169, the “Impurity RRT 1.593” value (5° C. 3M) was 0.077 and the “Impurity RRT 1.694” value (5° C. 3M) was 0.056. The “Total Impurity” value (5° C. 3M) was 1.35, the Assay (5° C. 3M, hemi calcium salt) was 98.20 % W/W and the “Highest Impurity” value (5° C. 3M, hemi calcium salt) was 0.469. The “Impurity RRT 0.935” value (5° C. 3M, hemi calcium salt) was 0.385, the “Impurity RRT 1.045” value (5° C. 3M, hemi calcium salt) was 0.469 and the “Impurity RRT 1.64” value (5° C. 3M, hemi calcium salt) was 0.047. The Water (5° C. 3M, hemi calcium salt) was 4.97 % W/W, the Description (5° C. 4M) was “White” and the “Impurity RRT 1.094” value (5° C. 4M) was 0.169. The “Impurity RRT 1.437” value (5° C. 4M) was 0.132, the “Impurity RRT 1.593” value (5° C. 4M) was 0.071 and the “Impurity RRT 1.694” value (5° C. 4M) was 0.071. For the same compound, the Assay (5° C. 4M, hemi calcium salt) was 98.24 % W/W, the “Highest Impurity” value (5° C. 4M, hemi calcium salt) was 0.419 and the “Impurity RRT 0.935” value (5° C. 4M, hemi calcium salt) was 0.419. For the same compound, the “Impurity RRT 1.045” value (5° C. 4M, hemi calcium salt) was 0.409, the “Impurity RRT 1.640” value (5° C. 4M, hemi calcium salt) was 0.067 and the “Total Impurity” value (5° C. 4M, hemi calcium salt) was 1.338. The Water (5° C. 4M, hemi calcium salt) was 4.43 % W/W, the Description (5° C. 5M) was “White” and the “Impurity RRT 1.094” value (5° C. 5M) was 0.105. For the same compound, the “Impurity RRT 1.437” value (5° C. 5M) was 0.155, the “Impurity RRT 1.550” value (5° C. 5M) was 0.587 and the “Impurity RRT 1.694” value (5° C. 5M) was 0.045. The Assay (5° C. 5M, hemi calcium salt) was 98.29 % W/W, the “Highest Impurity” value (5° C. 5M, hemi calcium salt) was 0.587 and the “Impurity RRT 0.935” value (5° C. 5M, hemi calcium salt) was 0.289. The “Impurity RRT 1.045” value (5° C. 5M, hemi calcium salt) was 0.312, the “Impurity RRT 1.640” value (5° C. 5M, hemi calcium salt) was 0.024 and the “Total Impurity” value (5° C. 5M, hemi calcium salt) was 1.517. For the same compound, the Water (5° C. 5M, hemi calcium salt) was 5.55 % W/W, the Description (5° C. 6M) was “White” and the “Impurity RRT 1.094” value (5° C. 6M) was 0.153. The “Impurity RRT 1.437” value (5° C. 6M) was 0.170, the “Impurity RRT 1.593” value (5° C. 6M) was 0.081 and the “Impurity RRT 1.694” value (5° C. 6M) was 0.070. The Water (5° C. 6M) was 5.04 % W/W, the Assay (5° C. 6M, hemi calcium salt) was 98.02 % W/W and the “Highest Impurity” value (5° C. 6M, hemi calcium salt) was 0.423. For the same compound, the “Impurity RRT 0.935” value (5° C. 6M, hemi calcium salt) was 0.423, the “Impurity RRT 1.045” value (5° C. 6M, hemi calcium salt) was 0.390 and the “Impurity RRT 1.640” value (5° C. 6M, hemi calcium salt) was 0.053. The “Total Impurity” value (5° C. 6M, hemi calcium salt) was 1.340, the Description (5° C. 9M) was “White” and the “Impurity RRT 1.094” value (5° C. 9M) was 0.161. For the same compound, the “Impurity RRT 1.180” value (5° C. 9M) was 0.055, the “Impurity RRT 1.437” value (5° C. 9M) was 0.170 and the “Impurity RRT 1.593” value (5° C. 9M) was 0.065. For the same compound, the “Impurity RRT 1.694” value (5° C. 9M) was 0.064, the Assay (5° C. 9M, hemi calcium salt) was 98.12 % W/W and the “Highest Impurity” value (5° C. 9M, hemi calcium salt) was 0.407. For the same compound, the “Impurity RRT 0.935” value (5° C. 9M, hemi calcium salt) was 0.407, the “Impurity RRT 1.045” value (5° C. 9M, hemi calcium salt) was 0.407 and the “Impurity RRT 1.640” value (5° C. 9M, hemi calcium salt) was 0.033. For the same compound, the “Total Impurity” value (5° C. 9M, hemi calcium salt) was 1.362, the Water (5° C. 9M, hemi calcium salt) was 5.07 % W/W and the Description (5° C. 12M) was “White”. For the same compound, the “Impurity RRT 1.094” value (5° C. 12M) was 0.158, the “Impurity RRT 1.180” value (5° C. 12M) was 0.022 and the “Impurity RRT 1.437” value (5° C. 12M) was 0.152. The “Impurity RRT 1.593” value (5° C. 12M) was 0.086, the “Impurity RRT 1.694” value (5° C. 12M) was 0.068 and the Assay (5° C. 12M, hemi calcium salt) was 97.78 % W/W. For the same compound, the “Highest Impurity” value (5° C. 12M, hemi calcium salt) was 0.432, the “Impurity RRT 0.935” value (5° C. 12M, hemi calcium salt) was 0.417 and the “Impurity RRT 1.045” value (5° C. 12M, hemi calcium salt) was 0.432. For the same compound, the “Impurity RRT 1.640” value (5° C. 12M, hemi calcium salt) was 0.051, the “Total Impurity” value (5° C. 12M, hemi calcium salt) was 1.413 and the Water (5° C. 12M, hemi calcium salt) was 5.08 % W/W. The Assay (25° C./50% RH 6M) was 98.01 % W/W, the Description (25° C./50% RH 6M) was “White” and the “Highest Impurity” value (25° C./50% RH 6M) was 0.390. The “Impurity RRT 0.935” value (25° C./50% RH 6M) was 0.390, the “Impurity RRT 1.045” value (25° C./50% RH 6M) was 0.370 and the “Impurity RRT 1.094” value (25° C./50% RH 6M) was 0.140. The “Impurity RRT 1.437” value (25° C./50% RH 6M) was 0.117, the “Impurity RRT 1.593” value (25° C./50% RH 6M) was 0.073 and the “Impurity RRT 1.640” value (25° C./50% RH 6M) was 0.048. The “Impurity RRT 1.694” value (25° C./50% RH 6M) was 0.074, the “Total Impurity” value (25° C./50% RH 6M) was 1.212 and the Water (25° C./50% RH 6M) was 5.41 % W/W. The Description (25° C./60% RH 3M) was “White”, the “Impurity RRT 1.094” value (25° C./60% RH 3M) was 0.153 and the “Impurity RRT 1.437” value (25° C./60% RH 3M) was 0.155. The “Impurity RRT 1.593” value (25° C./60% RH 3M) was 0.079, the “Impurity RRT 1.694” value (25° C./60% RH 3M) was 0.064 and the Assay [1] was 98.21 % W/W. The “Highest Impurity” value [1] was 0.388, the “Impurity RRT 0.935” value [1] was 0.368 and the “Impurity RRT 1.045” value [1] was 0.382. The “Impurity RRT 1.64” value [1] was 0.047, the “Total Impurity” value [1] was 1.270 and the Water [1] was 4.03 % W/W. For the same compound, the Description (25° C./60% RH 9M) was “White”, the “Impurity RRT 1.094” value (25° C./60% RH 9M) was 0.141 and the “Impurity RRT 1.437” value (25° C./60% RH 9M) was 0.162. For the same compound, the “Impurity RRT 1.593” value (25° C./60% RH 9M) was 0.076, the “Impurity RRT 1.694” value (25° C./60% RH 9M) was 0.068 and the Assay [2] was 98.09 % W/W. For the same compound, the “Highest Impurity” value [2] was 0.376, the “Impurity RRT 0.935” value [2] was 0.374 and the “Impurity RRT 1.045” value [2] was 0.376. The “Impurity RRT 1.640” value [2] was 0.046, the “Total Impurity” value [2] was 1.243 and the Water [2] was 5.04 % W/W. The Description (25° C./60% RH 12M) was “White”, the “Impurity RRT 1.094” value (25° C./60% RH 12M) was 0.153 and the “Impurity RRT 1.180” value (25° C./60% RH 12M) was 0.019. The “Impurity RRT 1.437” value (25° C./60% RH 12M) was 0.145, the “Impurity RRT 1.593” value (25° C./60% RH 12M) was 0.083 and the “Impurity RRT 1.694” value (25° C./60% RH 12M) was 0.059. For the same compound, the Assay (25° C./60% RH 12M, hemi calcium salt) was 97.95 % W/W.
